≈ marks a conversion by molar mass, not a printed value. Read-outs that look alike come from different tables or passages of the source.
Key:
C. freundii 902 = assay: Minimum inhibitory concentration in vitro, agar dilution method; format: cell-based; conditions: Citrobacter freundii
Description: (§1) 1. Minimum Inhibitory Concentration in vitro
(§2) The activities ascertained, minimum inhibitory concentration (MIC) in μg/ml, are compiled in Table 1 hereinafter: […]

E. aerogenes CF153 = assay: as above; format: cell-based; conditions: Klebsiella aerogenes, CF153
Description: as §1, §2

E. cloacae 908R = assay: as above; format: cell-based; conditions: Enterobacter cloacae
Description: as §1, §2

E. cloacae 908SSi = assay: as above; format: cell-based; conditions: Enterobacter cloacae
Description: as §1, §2

E. cloacae P99 = assay: as above; format: cell-based; conditions: Enterobacter cloacae
Description: as §1, §2

E. coli 25922 [1] = assay: as above; format: cell-based; conditions: Escherichia coli
Description: as §1, §2

K. oxytoca 1082 = assay: as above; format: cell-based; conditions: Klebsiella oxytoca
Description: as §1, §2

K. pneumoniae 418 = assay: as above; format: cell-based; conditions: Klebsiella pneumoniae
Description: as §1, §2

P. aeruginosa 27853 = assay: as above; format: cell-based; conditions: Pseudomonas aeruginosa
Description: as §1, §2

P. aeruginosa 799/61 = assay: as above; format: cell-based; conditions: Pseudomonas aeruginosa
Description: as §1, §2

P. aeruginosa 799/WT = assay: as above; format: cell-based; conditions: Pseudomonas aeruginosa
Description: as §1, §2

P. aeruginosa BA = assay: as above; format: cell-based; conditions: Pseudomonas aeruginosa
Description: as §1, §2

P. aeruginosa MK1184 = assay: as above; format: cell-based; conditions: Pseudomonas aeruginosa
Description: as §1, §2

P. mirabilis 2117 = assay: as above; format: cell-based; conditions: Proteus mirabilis
Description: as §1, §2

P. vulgaris 1028 = assay: as above; format: cell-based; conditions: Proteus vulgaris
Description: as §1, §2

S. aureus 6538 = assay: as above; format: cell-based; conditions: Staphylococcus aureus
Description: as §1, §2

S. marcescens 69438 = assay: as above; format: cell-based; conditions: Serratia marcescens
Description: as §1, §2

S. pyogenes 15 = assay: as above; format: cell-based; conditions: Streptococcus pyogenes
Description: as §1, §2

E. coli 25922 [2] = assay: Experimental systemic septicaemia in the mouse; format: in vivo; conditions: 96 h
How it was run: (§3)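 Albino mice (16-20 g) infected i.p. with overnight culture at about 5-100× the 48 h LD50; groups of 5. Compounds given s.c. in 2% Tween 80 at 1 and 3 h post-infection (P. aeruginosa also at 5 h). ED50 (mg/kg s.c.) by Probit from 4-day survival.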

[3] = tested on: Pseudomonas aeruginosa BA; assay: Experimental systemic septicaemia in the mouse; format: in vivo; conditions: sc, 96 h
How it was run: as §3

S. aureus Schoch = assay: Experimental systemic septicaemia in the mouse; format: in vivo; conditions: Staphylococcus aureus, sc, 96 h
How it was run: as §3

S. pneumoniae BA = assay: Minimum inhibitory concentration in vitro, agar dilution method; format: cell-based; conditions: Streptococcus pneumoniae
Description: as §1, §2

Compound | MIC (C. freundii 902; 902) [µg/mL] | MIC (E. cloacae 908R; 908R) [µg/mL] | MIC (E. cloacae 908SSi; 908SSI) [µg/mL] | MIC (E. cloacae P99) [µg/mL] | MIC (E. coli 25922 [1]; 25922) [µg/mL] | MIC (K. oxytoca 1082; 1082) [µg/mL] | MIC (K. pneumoniae 418; 418) [µg/mL] | MIC (P. aeruginosa 27853; 27853) [µg/mL] | MIC (P. aeruginosa 799/61; 799/61) [µg/mL] | MIC (P. aeruginosa 799/WT; 799/WT) [µg/mL] | MIC (P. aeruginosa BA) [µg/mL] | MIC (P. aeruginosa MK1184; MK1184) [µg/mL] | MIC (P. mirabilis 2117; 2117) [µg/mL] | MIC (P. vulgaris 1028; 1028) [µg/mL] | MIC (S. aureus 6538; 6538) [µg/mL] | MIC (S. marcescens 69438; 69438) [µg/mL] | MIC (S. pyogenes 15; 15) [µg/mL] | ED50 (E. coli 25922 [2]; Escherichia coli, 25922, sc) [mg/kg] | ED50 [3] [mg/kg] | ED50 (S. aureus Schoch) [mg/kg] | other results
Cc1cc(SCC2=C(C(=O)[O-])N3C(=O)[C@@H](NC(=O)/C(=N\OCc4ccc(O)c(O)c4)c4csc(N)n4)[C@H]3SC2)n2nc(CS(=O)(=O)c3ccc(O)c(O)c3)nc2n1.[Na+] [Example 11, (6R,7R)-7-[(Z)-2-(2-amino-4-thiazolyl)-2-[[(3,4-dihydroxybenzyl)oxy]imino]acetamido]-3-[[[2-[[(3,4-dihydroxyphenyl)sulphonyl]methyl]-5-methyl-s-triazolo[1,5-a]pyrimidin-7-yl]thio]methyl]-8-oxo-5-thia-1-azabicyclo[4.2.0]oct-2-ene-2-carboxylic acid sodium salt (1:1)] | 0.12 | 2 | 4 | 16 | < 0.1 | < 0.1 | < 0.1 | < 0.1 | < 0.1 | 0.12 | 0.12 | < 0.1 | 0.12 | 0.25 | 8 | 0.25 | 2 | < 0.05 | 0.035 | 3.5 | MIC (E. aerogenes CF153): 1 µg/mL
Cc1cc(SCC2=C(C(=O)[O-])N3C(=O)[C@@H](NC(=O)/C(=N\OCc4ccc(O)c(O)c4F)c4csc(N)n4)[C@H]3SC2)n2nc(CS(=O)(=O)c3ccc(O)c(O)c3)nc2n1.[Na+] [Example 12, (6R,7R)-7-[(Z)-2-(2-amino-4-thiazolyl)-2-[[(2-fluoro-3,4-dihydroxybenzyl)oxy]imino]acetamido]-3-[[[2-[[(3,4-dihydroxyphenyl)sulphonyl]methyl]-5-methyl-s-triazolo[1,5-a]pyrimidin-7-yl]thio]methyl]-8-oxo-5-thia-1-azabicyclo[4.2.0]oct-2-ene-2-carboxylic acid sodium salt (1:1)] | < 0.1 | 2 | 4 | 8 | < 0.1 | 0.5 | < 0.1 | < 0.1 | < 0.1 | < 0.1 | < 0.1 | < 0.1 | 0.12 | 0.25 | 16 | < 0.1 | 2 | < 0.05 | 0.028 | 6.2 | MIC (E. aerogenes CF153): 4 µg/mL
Nc1nc(/C(=N/OCc2cc(=O)c(O)co2)C(=O)N[C@@H]2C(=O)N3C(C(=O)O)=C(CSc4cc(-c5ccc(O)c(O)c5)nc5ccnn45)CS[C@H]23)cs1 [Example 14, (6R,7R)-7-[(Z)-2-(2-amino-4-thiazolyl)-2-[[(5-hydroxy-4-oxo-4H-pyran-2-yl)methoxy]imino]acetamido]-3-[[[5-(3,4-dihydroxyphenyl)pyrazolo[1,5-a]pyrimidin-7-yl]thio]methyl]-8-oxo-5-thia-1-azabicyclo[4.2.0]oct-2-ene-2-carboxylicacid] | – | – | – | 16 (≈ 20.9 µM) | – | – | – | – | – | – | – | – | – | – | – | – | – | – | – | – | MIC (C. freundii 902; C. freundii 902, agar dilution, read-out: MIC): 1 µg/mL (≈ 1.31 µM); MIC (E. cloacae 908R; E. cloacae 908R, agar dilution, read-out: MIC): 2 µg/mL (≈ 2.62 µM); MIC (E. cloacae 908SSi; E. cloacae 908SSi, agar dilution, read-out: MIC): 1 µg/mL (≈ 1.31 µM); MIC (E. coli 25922 [1]; E. coli 25922, agar dilution, read-out: MIC): 0.12 µg/mL (≈ 0.157 µM); MIC (K. oxytoca 1082; K. oxytoca 1082, agar dilution, read-out: MIC): 0.12 µg/mL (≈ 0.157 µM); MIC (K. pneumoniae 418; K. pneumoniae 418, agar dilution, read-out: MIC): 0.06 µg/mL (≈ 0.0785 µM); MIC (P. aeruginosa 27853; P. aeruginosa 27853, agar dilution, read-out: MIC): 4 µg/mL (≈ 5.23 µM); MIC (P. aeruginosa 799/61; P. aeruginosa 799/61, agar dilution, read-out: MIC): 0.06 µg/mL (≈ 0.0785 µM); MIC (P. aeruginosa 799/WT; P. aeruginosa 799/WT, agar dilution, read-out: MIC): 1 µg/mL (≈ 1.31 µM); MIC (P. aeruginosa BA; P. aeruginosa BA, agar dilution, read-out: MIC): 4 µg/mL (≈ 5.23 µM); MIC (P. aeruginosa MK1184; P. aeruginosa MK1184, agar dilution, read-out: MIC): 16 µg/mL (≈ 20.9 µM); MIC (P. mirabilis 2117; P. mirabilis 2117, agar dilution, read-out: MIC): 0.5 µg/mL (≈ 0.654 µM); MIC (P. vulgaris 1028; P. vulgaris 1028, agar dilution, read-out: MIC): 0.25 µg/mL (≈ 0.327 µM); MIC (S. aureus 6538; S. aureus 6538, agar dilution, read-out: MIC): 16 µg/mL (≈ 20.9 µM); MIC (S. marcescens 69438; S. marcescens 69438, agar dilution, read-out: MIC): 0.25 µg/mL (≈ 0.327 µM); MIC (S. pneumoniae BA; S. pneumoniae BA, agar dilution, read-out: MIC): 0.5 µg/mL (≈ 0.654 µM); MIC (S. pyogenes 15; S. pyogenes 15, agar dilution, read-out: MIC): 0.5 µg/mL (≈ 0.654 µM); ED50 (E. coli 25922 [2]; Escherichia coli, sc, E. coli 25922, albino mice, s.c. 1 and 3 hours after infection, survival after 4 days, read-out: ED50): 4.4 mg/kg; ED50 ([3]; P. aeruginosa BA, albino mice, s.c. 1, 3 and 5 hours after infection, survival after 4 days, read-out: ED50): 7.1 mg/kg; ED50 (S. aureus Schoch; S. aureus Schoch, albino mice, s.c. 1 and 3 hours after infection, survival after 4 days, read-out: ED50): > 12 mg/kg
Cc1cc(SCC2=C(C(=O)[O-])N3C(=O)[C@@H](NC(=O)/C(=N\OC(C)(C)C(=O)NNC(=O)c4ccc(O)c(O)c4)c4csc(N)n4)[C@H]3SC2)n2nc(CNC(=O)c3ccc(O)c(O)c3)nc2n1.[Na+] [Example 61, (6R,7R)-7-[(Z)-2-(2-amino-4-thiazolyl)-2-[[1-[3-(3,4-dihydroxybenzoyl)carbazoyl]-1-methylethoxy]imino]acetamido]-3-[[[2-[[(3,4-dihydroxybenzoyl)amino]methyl]-5-methyl-s-triazolo[1,5-a]pyrimidin-7-yl]thio]methyl]-8-oxo-5-thiaazabicyclo[4.2.0]oct-2-ene-2-carboxylic acid sodium salt (1:1)] | < 0.1 | 0.5 | 1 | 1 | < 0.1 | < 0.1 | < 0.1 | < 0.1 | < 0.1 | < 0.1 | < 0.1 | < 0.1 | < 0.1 | < 0.1 | 16 | < 0.1 | 1 | < 0.1 | 0.06 | 8.4 | MIC (S. pneumoniae BA): 4 µg/mL

Source: patent US5438052A, “Cephalosporin derivatives” (Hoffmann-La Roche Inc., priority 1991, dated 1995)
